Measurements from patent US9216978B2, “Ring-fused pyrimidines and triazines and use thereof for the treatment and/or prophylaxis of cardiovascular diseases” (BAYER INTELLECTUAL PROPERTY GMBH, priority 2010, dated 2015).

Columns and labels:
[1] = molecular target: T1, recombinant guanylate cyclase reporter cell line (Rattus norvegicus, UniProt P19686+P20595); experiment: Action on recombinant guanylate cyclase reporter cell line; format: cell-based
T1 construct: expressed in transfected cells
T1 sequence (P20595 1-619): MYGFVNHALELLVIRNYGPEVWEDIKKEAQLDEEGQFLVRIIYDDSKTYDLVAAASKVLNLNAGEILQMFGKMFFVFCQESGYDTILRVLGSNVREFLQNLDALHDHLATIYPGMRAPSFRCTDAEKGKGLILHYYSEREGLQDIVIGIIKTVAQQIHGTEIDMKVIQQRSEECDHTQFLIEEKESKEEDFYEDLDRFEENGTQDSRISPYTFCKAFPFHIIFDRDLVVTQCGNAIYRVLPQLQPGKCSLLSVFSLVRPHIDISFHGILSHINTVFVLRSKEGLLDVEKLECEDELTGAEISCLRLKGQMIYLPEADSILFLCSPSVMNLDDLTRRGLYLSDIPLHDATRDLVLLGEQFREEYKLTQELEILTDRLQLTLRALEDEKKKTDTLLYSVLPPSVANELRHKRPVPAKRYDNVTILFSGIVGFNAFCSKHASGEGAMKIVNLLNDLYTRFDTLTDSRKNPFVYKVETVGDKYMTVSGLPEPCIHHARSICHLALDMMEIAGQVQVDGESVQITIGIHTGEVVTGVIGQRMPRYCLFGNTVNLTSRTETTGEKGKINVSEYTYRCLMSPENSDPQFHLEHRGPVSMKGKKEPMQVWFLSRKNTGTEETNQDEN
T1 sequence (P19686 1-690): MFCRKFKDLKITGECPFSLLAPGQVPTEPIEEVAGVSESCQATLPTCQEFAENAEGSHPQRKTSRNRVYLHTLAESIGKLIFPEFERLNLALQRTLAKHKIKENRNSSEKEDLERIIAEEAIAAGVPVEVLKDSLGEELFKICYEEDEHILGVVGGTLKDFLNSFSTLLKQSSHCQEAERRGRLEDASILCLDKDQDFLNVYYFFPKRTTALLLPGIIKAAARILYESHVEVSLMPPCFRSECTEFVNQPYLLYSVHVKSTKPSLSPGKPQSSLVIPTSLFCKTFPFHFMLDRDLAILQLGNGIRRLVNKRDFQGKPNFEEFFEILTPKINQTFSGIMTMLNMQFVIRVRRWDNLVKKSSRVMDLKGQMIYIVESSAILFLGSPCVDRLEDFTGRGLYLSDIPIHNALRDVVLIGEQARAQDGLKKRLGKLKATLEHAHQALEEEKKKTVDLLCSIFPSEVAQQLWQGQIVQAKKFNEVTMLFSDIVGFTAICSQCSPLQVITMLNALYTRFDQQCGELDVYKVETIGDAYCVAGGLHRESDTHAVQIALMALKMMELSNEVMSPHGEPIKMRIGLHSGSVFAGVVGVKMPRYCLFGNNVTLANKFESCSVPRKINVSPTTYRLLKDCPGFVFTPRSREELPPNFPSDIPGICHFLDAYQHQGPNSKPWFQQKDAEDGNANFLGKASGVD
Procedure: B-2. Action on Recombinant Guanylate Cyclase Reporter Cell Line
The cellular action of the compounds according to the invention is determined on a recombinant guanylate cyclase reporter cell line, as described in F. Wunder et al., Anal. Biochem. 339, 104-112 (2005).

aorta = experiment: Vessel-relaxing action in vitro (phenylephrine-contracted aorta rings); details: Oryctolagus cuniculus; rabbit aorta rings, phenylephrine contraction; concentration reducing control contraction by 50%
Procedure: B-1. Vessel-Relaxing Action In Vitro
Rabbits are stunned with a blow on the back of the neck and exsanguinated. The aorta is removed, freed from adhering tissue, separated into rings with a width of 1.5 mm, and placed individually, with preloading, in 5-ml organ baths with carbogen-gassed Krebs-Henseleit solution at 37° C. with the following composition (mM in each case): sodium chloride: 119; potassium chloride: 4.8; calcium chloride dihydrate: 1; magnesium sulphate heptahydrate: 1.4; potassium dihydrogen phosphate: 1.2; sodium hydrogen carbonate: 25; glucose: 10. The contraction force is recorded with Statham UC2 cells, amplified and digitized via an A/D converter (DAS-1802 HC, Keithley Instruments Munich) and recorded in parallel on a continuous-line recorder. To produce contraction, phenylephrine is added to the bath cumulatively in increasing concentration. After several control cycles, the test substance is added in increasing dosage in each subsequent pass and the level of contraction is compared with the level of contraction reached in the immediately preceding pass. This is used for calculating the concentration that is required to reduce the level of the control value by 50% (IC50 value). The standard application volume is 5 μl, and the proportion of DMSO in the bath solution corresponds to 0.1%.

Structure (SMILES)	MEC (minimal effective concentration) [1]	IC50 (aorta)
O=C1Nc2nc(-c3nn(Cc4ccccc4F)c4ncccc34)ncc2C12CCOC2 (centres unmarked) [Example 3, 2′-[1-(2-Fluorobenzyl)-1H-pyrazolo[3,4-b]pyridin-3-yl]-4,5-dihydrospiro[furan-3,5′-pyrrolo[2,3-d]pyrimidin]-6′(7′H)-one]	0.03 µM	–
O=C1Nc2nc(-c3nn(Cc4ccccc4F)c4ncc(F)cc34)ncc2C12CC2 [Example 30, 2′-[5-Fluoro-1-(2-fluorobenzyl)-1H-pyrazolo[3,4-b]pyridin-3-yl]spiro[cyclopropane-1,5′-pyrrolo[2,3-d]pyrimidin]-6′(7′H)-one]	0.03 µM	97 nM
O=C1Cc2cnc(-c3nn(Cc4ccccc4F)c4ncccc34)nc2N1 [Example 4, 2-[1-(2-Fluorobenzyl)-1H-pyrazolo[3,4-b]pyridin-3-yl]-5,7-dihydro-6H-pyrrolo[2,3-d]pyrimidin-6-one]	0.03 µM	–
O=C1Nc2nc(-c3nn(Cc4ccc(F)cc4F)c4ncccc34)ncc2C12CC2 [Example 8, 2′-[1-(2,4-Difluorobenzyl)-1H-pyrazolo[3,4-b]pyridin-3-yl]spiro[cyclopropane-1,5′-pyrrolo[2,3-d]pyrimidin]-6′(7′H)-one]	0.03 µM	13 nM
COC(=O)NC1C(=O)Nc2nc(-c3nn(Cc4ccccc4F)c4ncccc34)ncc21 (centres unmarked) [Example 26, Methyl {2-[1-(2-fluorobenzyl)-1H-pyrazolo[3,4-b]pyridin-3-yl]-6-oxo-6,7-dihydro-5H-pyrrolo[2,3-d]pyrimidin-5-yl}carbamate]	0.3 µM	840 nM
CC1(C)C(=O)Nc2nc(-c3nn(Cc4ccc(F)cc4F)c4ncccc34)ncc21 [Example 13, 2-[1-(2,4-Difluorobenzyl)-1H-pyrazolo[3,4-b]pyridin-3-yl]-5,5-dimethyl-5,7-dihydro-6H-pyrrolo[2,3-d]pyrimidin-6-one]	0.1 µM	–
CC1(C)C(=O)Nc2nc(-c3nn(Cc4ccccc4F)c4ncc(F)cc34)ncc21 [Example 2, 2-[5-Fluoro-1-(2-fluorobenzyl)-1H-pyrazolo[3,4-b]pyridin-3-yl]-5,5-dimethyl-5,7-dihydro-6H-pyrrolo[2,3-d]pyrimidin-6-one]	0.01 µM	12 nM
COC(=O)C(C)(C)c1nnc(-c2nn(Cc3c(F)ccc(F)c3F)c3ncc(F)cc23)nc1O [Example 82A, Methyl 2-{3-[5-fluoro-1-(2,3,6-trifluorobenzyl)-1H-pyrazolo[3,4-b]pyridin-3-yl]-5-hydroxy-1,2,4-triazin-6-yl}-2-methylpropanoate]	0.3 µM	–
CC1(C)C(=O)Nc2nc(-c3nn(Cc4ccc(F)cc4F)c4ncc(F)cc34)nnc21 [Example 21, 3-[1-(2,4-Difluorobenzyl)-5-fluoro-1H-pyrazolo[3,4-b]pyridin-3-yl]-7,7-dimethyl-5,7-dihydro-6H-pyrrolo[2,3-e][1,2,4]triazin-6-one]	0.1 µM	–
O=C1Cc2nnc(-c3nn(Cc4ccccc4F)c4ncccc34)nc2N1 [Example 6, 3-[1-(2-Fluorobenzyl)-1H-pyrazolo[3,4-b]pyridin-3-yl]-5,7-dihydro-6H-pyrrolo[2,3-e][1,2,4]-triazin-6-one]	0.03 µM	–
CC1(C)C(=O)Nc2nc(-c3nn(Cc4ccccc4F)c4ncccc34)nc(C3CC3)c21 [Example 12, 4-Cyclopropyl-2-[1-(2-fluorobenzyl)-1H-pyrazolo[3,4-b]pyridin-3-yl]-5,5-dimethyl-5,7-dihydro-6H-pyrrolo[2,3-d]pyrimidin-6-one]	0.1 µM	–
CC1(C)C(=O)Nc2nc(-c3nn(Cc4ccc(F)cc4F)c4ncccc34)nnc21 [Example 28, 3-[1-(2,4-Difluorobenzyl)-1H-pyrazolo[3,4-b]pyridin-3-yl]-7,7-dimethyl-5,7-dihydro-6H-pyrrolo[2,3-e][1,2,4]triazin-6-one]	0.3 µM	103 nM
O=C1Nc2nc(-c3nn(Cc4cccc(F)c4F)c4ncccc34)ncc2C12CC2 [Example 10, 2′-[1-(2,3-Difluorobenzyl)-1H-pyrazolo[3,4-b]pyridin-3-yl]spiro[cyclopropane-1,5′-pyrrolo[2,3-d]pyrimidin]-6′(7′H)-one]	0.03 µM	6 nM
O=C1Nc2nc(-c3nn(Cc4ccccc4F)c4ncccc34)ncc2C1(O)c1ccccc1 (centres unmarked) [Example 22, 2-[1-(2-Fluorobenzyl)-1H-pyrazolo[3,4-b]pyridin-3-yl]-5-hydroxy-5-phenyl-5,7-dihydro-6H-pyrrolo[2,3-d]pyrimidin-6-one]	0.03 µM	–
O=C1CC(C(F)(F)F)c2cnc(-c3nn(Cc4ccccc4F)c4ncccc34)nc2N1 (centres unmarked) [Example 15, 2-[1-(2-Fluorobenzyl)-1H-pyrazolo[3,4-b]pyridin-3-yl]-5-(trifluoromethyl)-5,8-dihydropyrido[2,3-d]pyrimidin-7(6H)-one]	0.3 µM	–
O=C(O)CC1(O)C(=O)Nc2nc(-c3nn(Cc4ccccc4F)c4ncccc34)ncc21 (centres unmarked) [Example 25, {2-[1-(2-Fluorobenzyl)-1H-pyrazolo[3,4-b]pyridin-3-yl]-5-hydroxy-6-oxo-6,7-dihydro-5H-pyrrolo[2,3-d]pyrimidin-5-yl}acetic acid]	1.0 µM	–
COC(=O)C(C)(C)c1nnc(-c2nn(Cc3ccc(F)cc3F)c3ncccc23)nc1O [Example 77A, Methyl 2-{3-[1-(2,4-difluorobenzyl)-1H-pyrazolo[3,4-b]pyridin-3-yl]-5-hydroxy-1,2,4-triazin-6-yl}-2-methylpropanoate]	1.0 µM	–
O=C1Nc2nc(-c3nn(Cc4ccccc4F)c4ncccc34)ncc2C12CC2 [Example 5, 2′-[1-(2-Fluorobenzyl)-1H-pyrazolo[3,4-b]pyridin-3-yl]spiro[cyclopropane-1,5′-pyrrolo[2,3-d]pyrimidin]-6′(7′H)-one]	0.03 µM	–
O=C1Nc2nc(-c3nn(Cc4ccccc4F)c4ncccc34)ncc2C1=O [Example 16, 2-[1-(2-Fluorobenzyl)-1H-pyrazolo[3,4-b]pyridin-3-yl]-5H-pyrrolo[2,3-d]pyrimidine-5,6(7H)-dione]	1.0 µM	–
CC1(C)C(=O)Nc2nc(-c3nn(Cc4c(F)ccc(F)c4F)c4ncc(F)cc34)nnc21 [Example 29, 3-[5-Fluoro-1-(2,3,6-trifluorobenzyl)-1H-pyrazolo[3,4-b]pyridin-3-yl]-7,7-dimethyl-5,7-dihydro-6H-pyrrolo[2,3-e][1,2,4]triazin-6-one]	0.1 µM	–
